According to patent US6593455B2, “Tripeptide amides that block viral infectivity and methods of use thereof” (Tripep AB, priority 2001, dated 2003):
Ends that are not written are not given here.

System: HIV-1 SF-2
Test: HIV-1 infectivity assay in H9 cells (p24 production and RT activity in culture supernatants)
Type: cell-based
Conditions: approximately 100 μm peptide
Description: The tripeptide amides made according to EXAMPLE 1 were used in several HIV-1 infectivity assays to determine the ability of said tripeptide amides to inhibit HIV replication and/or infection. The efficiency of HIV-1 replication and status of HIV-1 infection was monitored by reverse transcriptase activity and the concentration of p24 protein in the cell supernatant. (See e.g., U.S. Pat. Nos. 5,627,035 and 6,258,932B1, herein expressly incorporated by reference in their entireties, which describe similar HIV infectivity assays and others that can be used to analyze the tripeptide amides described herein). EXAMPLE 2 describes an approach that was used to screen several tripeptide amides for their ability to inhibit HIV-1 infection.
In this example, the methods that were used to analyze the ability of various tripeptide amides to inhibit HIV-1 replication are disclosed. Approximately 10^5 of H9 cells were infected with HIV-1 SF-2 at 25 TCID50 to test the inhibitory effect of the following synthesized tripeptides: Ser-Ile-Leu-NH2, Ile-Leu-Asp-NH2, Gly-Pro-Lys-NH2, Pro-Lys-Glu-NH2, Lys-Glu-Pro-NH2, Glu-Pro-Phe-NH2, Arg-Asp-Tyr-NH2, Asp-Tyr-Val-NH2, Tyr-Lys-Thr-NH2, Arg-Ala-Glu-NH2, Ala-Glu-Gln-NH2, Glu-Gln-Ala-NH2, Val-Lys-Asn-NH2, Thr-Glu-Thr-NH2, Leu-Leu-Val-NH2, Val-Gln-Asn-NH2, Gln-Asn-Ala,-NH2, Asn-Ala-Asn-NH2, Asn-Pro-Asp-NH2, Pro-Asp-Cys-NH2, Cys-Lys-Thr-NH2, Thr-Ile-Leu-NH2, Pro-Gly-Ala-NH2, Thr-Leu-Glu-NH2, Thr-Ala-Cys-NH2, Ala-Cys-Gln-NH2, Gln-Gly-Val-NH2, Pro-Gly-His-NH2, and Arg-Val-Leu-NH2. Accordingly, the H9 cells were resuspended with or without the different peptides (approximately 100 μm) in 1 ml of RPMI 1640 medium supplemented with 10% (v/v) heat-inactivated fetal bovine serum (FBS), penicillin (100 μ/ml), and streptomycin (100 μ/ml), all available through GIBCO, and Polybrene (2 μg/ml), available through Sigma. Thereafter, viruses were added at 25 TCID50 in a volume of 20-30 μl. Cells were incubated with virus at 37° C. for 1 hr then pelleted at 170×g for 7 minutes. The cells were then washed three times in RPMI medium with or without peptides at room temperature and pelleted at 170×g for 7 minutes, as above. After the final wash, the cells were resuspended in RPMI culture medium containing the peptides in a 24-well plate (Costar corporation) and were kept at 37° C. in 5% CO2 with humidity.
Culture supernatants were collected and analyzed when the medium was changed at 4, 7, 10, and 14 days post infection. To monitor the replication of virus, reverse transcriptase (RT) activity in the supernatants was assayed using a commercially available Lenti-RT activity kit. (Cavidi Tech, Uppsala, Sweden). The amount of RT was determined with the aid of a regression line of standards.
The presence of p24 in the supernatants was determined using a commercially available HIV p24 antigen detection kit (ELISA kit from Abbott Laboratories, North Chicago, U.S.A.). In some cases, serial dilutions of the supernatants were made so as to more accurately detect p24 concentration.

| Substance | inhibition of HIV-1 infection |
| --- | --- |
| Leu-Leu-Val-NH2 | effectively inhibit HIV-1 infection |
| Thr-Ile-Leu-NH2 | effectively inhibit HIV-1 infection |
| Arg-Asp-Tyr-NH2 | effectively inhibit HIV-1 infection |
| Arg-Val-Leu-NH2 | effectively inhibit HIV-1 infection |
| Pro-Gly-His-NH2 | effectively inhibit HIV-1 infection |
| Arg-Ala-Glu-NH2 | effectively inhibit HIV-1 infection |
| Gln-Asn-Ala-NH2 | effectively inhibit HIV-1 infection |
| Gln-Gly-Val-NH2 | effectively inhibit HIV-1 infection |
| Ala-Glu-Gln-NH2 | effectively inhibit HIV-1 infection |
| Asp-Tyr-Val-NH2 | effectively inhibit HIV-1 infection |
| Gly-Pro-Lys-NH2 | effectively inhibit HIV-1 infection |
| Asn-Ala-Asn-NH2 | effectively inhibit HIV-1 infection |
| Ile-Leu-Asp-NH2 | effectively inhibit HIV-1 infection |
| Val-Lys-Asn-NH2 | effectively inhibit HIV-1 infection |
| Asn-Pro-Asp-NH2 | effectively inhibit HIV-1 infection |
| Thr-Glu-Thr-NH2 | effectively inhibit HIV-1 infection |
| Glu-Gln-Ala-NH2 | effectively inhibit HIV-1 infection |
| Pro-Asp-Cys-NH2 | effectively inhibit HIV-1 infection |
| Pro-Lys-Glu-NH2 | effectively inhibit HIV-1 infection |
| Pro-Gly-Ala-NH2 | effectively inhibit HIV-1 infection |
| Val-Gln-Asn-NH2 | effectively inhibit HIV-1 infection |
| Ser-Ile-Leu-NH2 | effectively inhibit HIV-1 infection |
| Thr-Leu-Glu-NH2 | effectively inhibit HIV-1 infection |
| Lys-Glu-Pro-NH2 | effectively inhibit HIV-1 infection |
| Glu-Pro-Phe-NH2 | effectively inhibit HIV-1 infection |
| Thr-Ala-Cys-NH2 | effectively inhibit HIV-1 infection |
| Cys-Lys-Thr-NH2 | effectively inhibit HIV-1 infection |
| Tyr-Lys-Thr-NH2 | effectively inhibit HIV-1 infection |
| Ala-Cys-Gln-NH2 | effectively inhibit HIV-1 infection |
